Test results: patent US10683278B2 (JINAN UNIVERSITY, priority 2015, dated 2020)
Where two headings read alike, the source gives them in different places.

Tests used:
AXL kinase = target: T1, AXL kinase (Homo sapiens, UniProt P30530); assay: IC50 test on AXL kinase (Z′-LYTE FRET kinase activity detection); type: biochemical; conditions: for IC50: Z′-LYTE FRET peptide assay, 1 h reaction
T1 construct: purchased Invitrogen PV4803
T1 sequence (P30530 26-894): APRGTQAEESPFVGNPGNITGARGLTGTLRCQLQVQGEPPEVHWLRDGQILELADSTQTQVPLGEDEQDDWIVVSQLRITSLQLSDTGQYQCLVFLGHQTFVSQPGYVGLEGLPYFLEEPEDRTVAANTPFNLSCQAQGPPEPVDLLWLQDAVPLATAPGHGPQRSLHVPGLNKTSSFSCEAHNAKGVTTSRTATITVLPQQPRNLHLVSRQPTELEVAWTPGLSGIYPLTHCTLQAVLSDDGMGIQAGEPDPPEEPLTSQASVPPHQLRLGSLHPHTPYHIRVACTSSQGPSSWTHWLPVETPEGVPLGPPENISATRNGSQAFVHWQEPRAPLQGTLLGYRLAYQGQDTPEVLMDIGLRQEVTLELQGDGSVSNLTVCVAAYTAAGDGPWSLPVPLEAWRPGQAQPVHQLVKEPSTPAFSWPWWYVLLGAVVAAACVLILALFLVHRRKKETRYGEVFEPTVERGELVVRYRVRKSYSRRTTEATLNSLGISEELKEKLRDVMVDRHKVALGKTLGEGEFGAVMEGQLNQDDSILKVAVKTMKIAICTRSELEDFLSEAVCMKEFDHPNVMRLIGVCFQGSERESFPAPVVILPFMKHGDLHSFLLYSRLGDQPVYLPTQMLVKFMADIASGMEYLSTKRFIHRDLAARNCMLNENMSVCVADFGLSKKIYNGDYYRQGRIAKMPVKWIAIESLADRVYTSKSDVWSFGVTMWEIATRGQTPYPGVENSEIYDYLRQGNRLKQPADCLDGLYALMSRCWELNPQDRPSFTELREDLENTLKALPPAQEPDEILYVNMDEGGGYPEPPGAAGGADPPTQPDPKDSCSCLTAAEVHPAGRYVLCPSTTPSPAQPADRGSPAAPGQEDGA
In short: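 AXL kinase with Z′-LYTE Tyr 2 FRET peptide, ATP and graded compound concentrations reacted 1 h, then site-specific protease cleaved non-phosphorylated peptide for 1 h. Emission at 445 and 520 nm with 400 nm excitation gave the IC50.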

[1] = target: T2, FLT-3 kinase domain recombinant protein (Homo sapiens, UniProt P36888); assay: Inhibition rate on FLT3 kinase (ELISA); type: biochemical; conditions: two values per compound; for inhibition at 0.01 µM / inhibition at 0.1 µM / inhibition at 1 µM: read-out: Inhibition rate (%) against receptor tyrosine kinase FLT-3
T2 construct: 50 μL FLT-3 kinase domain recombinant protein diluted with reaction buffer to initiate the reaction
T2 sequence (P36888 610-943 limits assumed): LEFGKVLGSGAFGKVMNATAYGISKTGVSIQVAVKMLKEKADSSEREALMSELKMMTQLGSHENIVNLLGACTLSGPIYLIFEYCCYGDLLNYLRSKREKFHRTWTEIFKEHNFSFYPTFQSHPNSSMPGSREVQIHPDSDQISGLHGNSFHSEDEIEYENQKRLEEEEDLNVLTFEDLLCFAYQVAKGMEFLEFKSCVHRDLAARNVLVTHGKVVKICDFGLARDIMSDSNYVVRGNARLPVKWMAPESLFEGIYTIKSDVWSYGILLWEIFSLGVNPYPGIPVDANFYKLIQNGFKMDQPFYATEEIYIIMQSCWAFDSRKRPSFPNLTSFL
Protocol: Conventional enzyme-linked immunosorbent assay (ELISA) method is used, and the specific steps are as follows
12,000 g of compounds were centrifuged for 5 min, DMSO was added to make a 10^−2M stock solution, vortexed uniformly and sonicated for 10 min for standby application, and stored at −40° C. The compounds were diluted from the stock solution with DMSO to 100 times the concentration to be tested (concentration of DMSO in the system being 1%) during the test.
1. The enzyme reaction substrate Poly (Glu, Tyr) 4:1 was diluted to 20 μg/mL with potassium-free PBS (10 mM sodium phosphate buffer, 150 mM NaCl, pH 7.2-7.4), the ELISA plate was coated with same in 125 μL/well, and reacted at 37° C. for 12-16 hours, the liquid in wells was discarded, the plate was washed three times, for 5 minutes each time, with T-PBS (potassium-free PBS with 0.1% Tween-20, 200 μL/well), and the ELISA plate was dried in an oven at 37° C. for 1-2 hours.
2. To each well were added 49 μL of ATP solution diluted with reaction buffer (50 mM HEPES pH 7.4, 50 mM MgCl2, 0.5 mM MnCl2, 0.2 mM Na3VO4, 1 mM DTT), 1 μL of compounds to be tested, and 50 μL FLT-3 kinase domain recombinant protein diluted with reaction buffer to initiate the reaction (two ATP-free control wells are required for each experiment). Subject to a shaker (100 rpm) at 37° C. and reacted for 1 hour. The liquid in wells was discarded, and the plate was washed three times with T-PBS.
(§1) 3. Antibody PY99 diluent (the antibody was diluted in 1:500 with T-PBS which contains 5 mg/mL BSA) was added in 100 μL/well, subjected same to a shaker at 37° C. and reacted for 0.5 hour. The liquid in wells was discarded, and the plate was washed three times with T-PBS.
as §1, with “4. Horseradish peroxidase labeled goat anti-mouse secondary antibody” for “3. Antibody PY99”, “1:2000” for “1:500”, “mg/ml” for “mg/mL”
5. 2 mg/ml of OPD developing solution (diluted with 0.1 M citric acid-sodium citrate buffer which contains 0.03% H2O2 (pH=5.4)) was added in 100 μL/well, and reacted at 25° C. in the dark for 1-10 minutes.
6. 2 M H2SO4 was added in 50 μL/well to stop the reaction, and the reading from the wavelength-adjustable microwell plate ELIASA VERSAmax was performed with a wavelength of 490 nm.

[2] = In vivo pharmacokinetic and bioavailability experiments of rats; parameters: species or system SD rats; conditions: Sprague-Dawley, rat, plasma; for bioavailability: po, 25 mg/kg, read-out: F (oral bioavailability); for AUC(0-inf) / AUC(0-t) / half-life / Cmax / clearance: SD rats; for Cmax: read-out: Cmax
Protocol: Pharmacokinetic and bioavailability experiments of rats. SD rats were administered orally (25 mg/kg) and intravenously (2.5 to 5 mg/kg) at a single dose. Animal blood samples were taken at appropriate time points after administration, heparin was added as anticoagulant, and same were centrifuged at 8000 rpm/min for 6 minutes, the supernatant was then taken and stored at −20° C. for HPLC-MS analysis. The proteins in blood samples were precipitated with acetonitrile at 12000 rpm for 10 min, and the supernatant was used for HPCL-MS analysis. Data were fit using DAS2.0 to obtain compartmental model and non-compartmental model parameters, respectively. The oral bioavailability of each compound was calculated according to AUC data.

Cc1c(C(=O)Nc2ccc(Oc3ncnc4[nH]cc(-c5ccccc5)c34)c(F)c2)c(=O)c2cc(C(C)(C)C)ccc2n1C [TL4800062, 6-(tert-butyl)-N-(3-fluoro-4-((5-phenyl-7H-pyrrolo[2,3-d]pyrimidin-4-yl)oxy)phenyl)-1,2-dimethyl-4-oxo-1,4-dihydroquinoline-3-carboxamide]
IC50 (AXL kinase): 42 nM
Inhibition rate (%) against receptor tyrosine kinase FLT-3 ([1]; compound 10 nM, 0.01 µM): 44.9%
inhibition at 0.01 µM ([1]; compound 10 nM): 40.5%
Inhibition rate (%) against receptor tyrosine kinase FLT-3 ([1]; compound 100 nM, 0.1 µM): 65.8%
inhibition at 0.1 µM ([1]; compound 100 nM): 69.5%
Inhibition rate (%) against receptor tyrosine kinase FLT-3 ([1]; compound 1000 nM, 1 µM): 79.1%
inhibition at 1 µM ([1]; compound 1000 nM): 84%

Cc1c(C(=O)Nc2ccc(Oc3ncnc4[nH]cc(-c5ccccc5)c34)c(F)c2)c(=O)c2cc(OC(F)(F)F)ccc2n1C [TL4800117, N-(3-fluoro-4-((5-phenyl-7H-pyrrolo[2,3-d]pyrimidin-4-yl)oxy)phenyl)-1,2-dimethyl-4-oxo-6-(trifluoromethoxy)-1,4-dihydroquinoline-3-carboxamide]
IC50 (AXL kinase): 75 nM
Inhibition rate (%) against receptor tyrosine kinase FLT-3 ([1]; compound 10 nM, 0.01 µM): 61.5%
inhibition at 0.01 µM ([1]; compound 10 nM): 59.5%
Inhibition rate (%) against receptor tyrosine kinase FLT-3 ([1]; compound 100 nM, 0.1 µM): 70.2%
inhibition at 0.1 µM ([1]; compound 100 nM): 76.3%
Inhibition rate (%) against receptor tyrosine kinase FLT-3 ([1]; compound 1000 nM, 1 µM): 74.1%
inhibition at 1 µM ([1]; compound 1000 nM): 83.8%

CCc1ccc2c(c1)c(=O)c(C(=O)Nc1ccc(Oc3ncnc4[nH]cc(-c5ccccc5)c34)c(F)c1)c(CC)n2C [TL4830005, 2,6-diethyl-N-(3-fluoro-4-(5-phenyl-7H-pyrrolo[2,3-d]pyrimidin-4-yloxy)phenyl)-1-methyl-4-oxo-1,4-dihydroquinoline-3-carboxamide]
IC50 (AXL kinase): 23 nM
inhibitory activity on AXL kinase (AXL kinase; competitive experiment with ATP, in words): strong inhibitory activity
Inhibition rate (%) against receptor tyrosine kinase FLT-3 ([1]; compound 10 nM, 0.01 µM): 49.8%
inhibition at 0.01 µM ([1]; compound 10 nM): 55.7%
Inhibition rate (%) against receptor tyrosine kinase FLT-3 ([1]; compound 100 nM, 0.1 µM): 53.3%
inhibition at 0.1 µM ([1]; compound 100 nM): 50.1%
Inhibition rate (%) against receptor tyrosine kinase FLT-3 ([1]; compound 1000 nM, 1 µM): 59.9%
inhibition at 1 µM ([1]; compound 1000 nM): 71.4%

CCc1ccc2c(c1)c(=O)c(C(=O)Nc1ccc(Oc3ncnc4[nH]cc(-c5ccccc5)c34)c(C)c1)c(C)n2C [TL4830016, 6-ethyl-12-dimethyl-N-(3-methyl-4-(5-phenyl-7H-pyrrolo[2,3-d]pyrimidin-4-yloxy)phenyl)-4-oxo-1,4-dihydroquinoline-3-carboxamide]
IC50 (AXL kinase): 1120 nM
Inhibition rate (%) against receptor tyrosine kinase FLT-3 ([1]; compound 10 nM, 0.01 µM): 66.5%
inhibition at 0.01 µM ([1]; compound 10 nM): 50.2%
Inhibition rate (%) against receptor tyrosine kinase FLT-3 ([1]; compound 100 nM, 0.1 µM): 66.1%
inhibition at 0.1 µM ([1]; compound 100 nM): 58.3%
Inhibition rate (%) against receptor tyrosine kinase FLT-3 ([1]; compound 1000 nM, 1 µM): 70.1%
inhibition at 1 µM ([1]; compound 1000 nM): 67.1%

COc1cc2ncnc(Oc3ccc(NC(=O)c4cn5c6c(cc(C)cc6c4=O)CCC5)cc3F)c2cc1OC [TL4830032, N-(4-((6,7-dimethoxyquinazolin-4-yl)oxy)-3-fluorophenyl)-9-methyl-1-oxo-1,5,6,7-tetrahydropyrido[3,2,1-ij]quinoline-2-carboxamide]
IC50 (AXL kinase): 26.5 nM
Inhibition rate (%) against receptor tyrosine kinase FLT-3 ([1]; compound 10 nM, 0.01 µM): 62.8%
inhibition at 0.01 µM ([1]; compound 10 nM): 63.8%
Inhibition rate (%) against receptor tyrosine kinase FLT-3 ([1]; compound 100 nM, 0.1 µM): 56.6%
inhibition at 0.1 µM ([1]; compound 100 nM): 69.8%
Inhibition rate (%) against receptor tyrosine kinase FLT-3 ([1]; compound 1000 nM, 1 µM): 68.5%
inhibition at 1 µM ([1]; compound 1000 nM): 72%

COc1cc2ncnc(Oc3ccc(NC(=O)c4cn5c6c(c(N7CCN(C)CC7)c(F)cc6c4=O)OCN5C)cc3F)c2cc1OC [TL4830039, N-(4-((6,7-dimethoxyquinazolin-4-yl)oxy)-3-fluorophenyl)-9-fluoro-3-methyl-10-(4-methylpiperazin-1-yl)-7-oxo-2,3-dihydro-7H-[1,3,4] oxadiazino[6,5,4-ij]quinoline-6-carboxamide]
IC50 (AXL kinase): 58 nM
Inhibition rate (%) against receptor tyrosine kinase FLT-3 ([1]; compound 10 nM, 0.01 µM): 49.8%
inhibition at 0.01 µM ([1]; compound 10 nM): 44.7%
Inhibition rate (%) against receptor tyrosine kinase FLT-3 ([1]; compound 100 nM, 0.1 µM): 57.4%
inhibition at 0.1 µM ([1]; compound 100 nM): 66.4%
Inhibition rate (%) against receptor tyrosine kinase FLT-3 ([1]; compound 1000 nM, 1 µM): 80.9%
inhibition at 1 µM ([1]; compound 1000 nM): 87.6%
bioavailability [2]: 7.92%
AUC(0-inf) ([2]; Po, 25 mg/kg single dose): 12200 ng·h/mL
AUC(0-t) ([2]; Po, 25 mg/kg single dose): 3800 ng·h/mL
half-life ([2]; Po, 25 mg/kg single dose): 35.5 h
Cmax ([2]; Po, 25 mg/kg single dose): 219 ng/mL
AUC(0-inf) ([2]; iv, 5 mg/kg single dose): 13000 ng·h/mL
AUC(0-t) ([2]; iv, 5 mg/kg single dose): 9600 ng·h/mL
clearance ([2]; iv, 5 mg/kg single dose): 6.5 mL/min/kg
half-life ([2]; iv, 5 mg/kg single dose): 12.7 h
Cmax ([2]; iv, 5 mg/kg single dose): 1140 ng/mL

COc1cc2ncnc(Oc3ccc(NC(=O)c4cn(-c5ccc(F)cc5)c5cc(N6CCNCC6)c(F)cc5c4=O)cc3F)c2cc1OC [TL4830042, N-(4-(6,7-dimethoxyquinazolin-4-yloxy)-3-fluorophenyl)-6-fluoro-1-(4-fluorophenyl)-4-oxo-7-(piperazin-1-yl)-1,4-dihydroquinoline-3-carboxamide]
IC50 (AXL kinase): 38 nM
Inhibition rate (%) against receptor tyrosine kinase FLT-3 ([1]; compound 10 nM, 0.01 µM): 40.0%
inhibition at 0.01 µM ([1]; compound 10 nM): 52.3%
Inhibition rate (%) against receptor tyrosine kinase FLT-3 ([1]; compound 100 nM, 0.1 µM): 44.5%
inhibition at 0.1 µM ([1]; compound 100 nM): 53.8%
Inhibition rate (%) against receptor tyrosine kinase FLT-3 ([1]; compound 1000 nM, 1 µM): 87.0%
inhibition at 1 µM ([1]; compound 1000 nM): 92.3%
bioavailability [2]: 0.2%
AUC(0-inf) ([2]; Po, 25 mg/kg single dose): 151 ng·h/mL
AUC(0-t) ([2]; Po, 25 mg/kg single dose): 98.9 ng·h/mL
half-life ([2]; Po, 25 mg/kg single dose): 14.5 h
Cmax ([2]; Po, 25 mg/kg single dose): 7.15 ng/mL
AUC(0-inf) ([2]; iv, 5 mg/kg single dose): 15200 ng·h/mL
AUC(0-t) ([2]; iv, 5 mg/kg single dose): 9780 ng·h/mL
clearance ([2]; iv, 5 mg/kg single dose): 5.83 mL/min/kg
half-life ([2]; iv, 5 mg/kg single dose): 15.8 h
Cmax ([2]; iv, 5 mg/kg single dose): 885 ng/mL
